Source: PubChem BioAssay AID2060623 (Molecular Pharmacology Branch, DTP, NCI, 2025)

Tested on: 227483-062-R1-J1-PDC complex spheroids with HUVEC/MSC, viability
Assay: Anticancer human tumor 227483-062-R1-J1-PDC patient-derived pancreatic carcinoma cell line growth inhibition [CLK]
Conditions: for IC50: curve of first compound; for viability, T/C: stronger effect = lower value; active = viability on the fitted dose curve at most 10% of control; inactive = the rest
Excerpt: A high-throughput screen of multi-cell type tumor spheroids was designed to identify active combinations of […] and targeted small molecules. Complex spheroids include a stromal component modeled by human endothelial cells (HUVEC) and fibroblasts modeled by human mesenchymal stem cells (MSCs). The concentration ranges selected for each drug and investigational agent were based upon clinically achievable concentrations if the clinical Cmax of the agent was known.
Compounds. The drugs and investigational agents: cirtuvivint (SM08502; NSC835563), CC-671 (NSC850746), vemurafenib (NSC761431), tapotoclax (NSC804041), sotorasib (NSC818433), adagrasib (NSC831453), MRTX-1133 (NSC836407), BAY2416964 (NSC825713), copanlisib (NSC816437), inavolisib (NSC800729), abemaciclib (NSC768073), osimertinib (NSC779217), entinostat (NSC756642), eltanexor (KPT-8602, NSC794443), venetoclax (NSC766270), ceralasertib (NSC777638), bortezomib (NSC756655), olaparib (NSC753686), talazoparib (NSC767125), alisertib (NSC759677), peposertib (NSC802822), gemcitabine (NSC613327), 5-fluorouracil (NSC19893), SN-38 (NSC673596), oxaliplatin (NSC266046), paclitaxel (NSC125973), and doxorubicin (NSC123127), were obtained from the National Cancer Institute (NCI) Developmental Therapeutics Program Chemical Repository. The FDA-approved anticancer drug set is available from the Developmental Therapeutics Program at https://dtp.cancer.gov/organization/dscb/obtaining/available plates.htm. […] The stock solutions were prepared in dimethyl sulfoxide (DMSO, Sigma-Aldrich, St. Louis, MO, cat. D2650), except for the platinum complexes which were prepared in saline (Quality Biological, Gaithersburg, MD, cat. 114-055-101), at 800-fold the tested concentration and stored at -70 degrees C prior to their use. All drugs and investigational agents were tested over a range starting from a high concentration at or near the clinical Cmax and decreasing in half-log increments. If the clinical Cmax for an agent had not been determined, the highest concentration tested was 10 microM.
Cell Culture. All cells were maintained in an incubator at 37 degrees C and 5% CO2 with 95% humidity. The PDC lines were cultured according to standard operating procedures established by the NCI PDMR. Briefly, all PDCs were thawed and cultured in Matrigel-coated flasks prepared with a working solution of 1X Ham's F-12 nutrient mix, without supplementation (Invitrogen, Waltham, MA, cat. 11765054), 100 U/mL penicillin-streptomycin (Invitrogen, cat. 15140122), and 2.5% Matrigel (Corning Inc., Corning, NY, cat. 354248) for the first three passages. The 947758-054-R-J2-PDC line was cultured in 6B/Colon 1A media, which includes advanced DMEM/F-12 (Thermo Fisher Scientific, cat. 12634028), 10 mM HEPES (Thermo Fisher Scientific, cat. 15630080), 1X GlutaMAX supplement (Thermo Fisher Scientific, cat. 35050061), 0.1 mg/mL primocin (InvivoGen, cat. ant-pm-2), 10% defined fetal bovine serum, heat inactivated (HyClone Laboratories Inc., cat. SH30070.03HI), 1.25 mM N-Acetyl-L-cysteine (Sigma-Aldrich, cat. A9165), 10 mM nicotinamide (Sigma-Aldrich, cat. N0636), 1X B-27 supplement (Thermo Fisher Scientific, cat. 17504044), 1X N-2 supplement (Thermo Fisher Scientific, cat. 17502048), and 10 microM Y-27632 dihydrochloride (Tocris Bioscience, cat. 1254). The 876862-298-R-J1-PDC was cultured in 6E media, which includes all 6B/Colon 1A media components plus 50% L-WRN conditioned media (ATCC, cat. CRL-3276), 50 ng/mL recombinant human EGF recombinant protein (hEGF; Thermo Fisher Scientific, cat. PHG0311), 10 ng/mL recombinant human fibroblast growth factor 10 (hGFG-10; PeproTech, cat. 100-26), 1 ng/mL recombinant human fibroblast growth factor 2 (hFGF-2; PeproTech, cat. 100-18B), and 1 µM prostaglandin E2 (PGE2; Tocris, cat. 2296). The 227483-062-R1-J1-PDC line was cultured in Panc media, containing all 6E components except hFGF-2, with the addition of 500 nM SB-431542 (Selleckchem, cat. S1067) and 10 nM gastrin (Tocris, cat. 3006). […]
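Also: spheroids exposed to compounds for seven days before readout.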
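For viability, T/C in this document: percent of DMSO vehicle control luminescence as 100% viability.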

COc1cccc2c1C(=O)c1c(O)c3c(c(O)c1C2=O)CC(O)(C(=O)CO)CC3OC1CC(N)C(O)C(C)O1 (centres undefined) + CN1CCN(c2cc(C(=O)Nc3cc4cc(-c5cnn(C)c5)ccc4cn3)ccn2)CC1
180 nM: IC50 (second compound 0.0316 µM)
< 31.6 nM: IC50 (second compound 0.316 µM) | IC50 (second compound 1 µM) | IC50 (second compound 3.16 µM) | IC50 (second compound 10 µM)
73.4 nM: IC50 (second compound 0.1 µM)
inactive: viability, T/C (second compound 0.0316 µM, first compound 0.0316 µM) 84.1% | viability, T/C (second compound 0.0316 µM, first compound 0.1 µM) 68% | viability, T/C (second compound 0.0316 µM, first compound 0.316 µM) 32.8% | viability, T/C (second compound 0.0316 µM, first compound 1 µM) 12.8% | viability, T/C (second compound 0.1 µM, first compound 0.0316 µM) 64.5% | viability, T/C (second compound 0.1 µM, first compound 0.1 µM) 44.6% | viability, T/C (second compound 0.1 µM, first compound 0.316 µM) 17.3%
active: viability, T/C (second compound 0.0316 µM, first compound 3.16 µM) 2.47% | viability, T/C (second compound 0.0316 µM, first compound 10 µM) 10.4% | viability, T/C (second compound 0.1 µM, first compound 1 µM) 8.44% | viability, T/C (second compound 0.1 µM, first compound 3.16 µM) 2.6% | viability, T/C (second compound 0.1 µM, first compound 10 µM) 10.8% | viability, T/C (second compound 0.316 µM, first compound 0.0316 µM) 5.51% | viability, T/C (second compound 0.316 µM, first compound 0.1 µM) 5.14% | viability, T/C (second compound 0.316 µM, first compound 0.316 µM) 1.16% | viability, T/C (second compound 0.316 µM, first compound 1 µM) 1.51% | viability, T/C (second compound 0.316 µM, first compound 3.16 µM) 3.05% | viability, T/C (second compound 0.316 µM, first compound 10 µM) 9.1% | viability, T/C (second compound 1 µM, first compound 0.0316 µM) 1.69% | viability, T/C (second compound 1 µM, first compound 0.1 µM) 1.91% | viability, T/C (second compound 1 µM, first compound 0.316 µM) 2.92% | viability, T/C (second compound 1 µM, first compound 1 µM) 4.33% | viability, T/C (second compound 1 µM, first compound 3.16 µM) 3.24% | viability, T/C (second compound 1 µM, first compound 10 µM) 11% | viability, T/C (second compound 3.16 µM, first compound 0.0316 µM) 5.16% | viability, T/C (second compound 3.16 µM, first compound 0.1 µM) 2.78% | viability, T/C (second compound 3.16 µM, first compound 0.316 µM) 2.53% | viability, T/C (second compound 3.16 µM, first compound 1 µM) 3.22% | viability, T/C (second compound 3.16 µM, first compound 3.16 µM) 3.62% | viability, T/C (second compound 3.16 µM, first compound 10 µM) 7.06% | viability, T/C (second compound 10 µM, first compound 0.0316 µM) 3.68% | viability, T/C (second compound 10 µM, first compound 0.1 µM) 1.75% | viability, T/C (second compound 10 µM, first compound 0.316 µM) 1.37% | viability, T/C (second compound 10 µM, first compound 1 µM) 1.43% | viability, T/C (second compound 10 µM, first compound 3.16 µM) 1.53% | viability, T/C (second compound 10 µM, first compound 10 µM) 1.26%

CC(C)CC(NC(=O)C(Cc1ccccc1)NC(=O)c1cnccn1)B(O)O (centres undefined) + CNC(=O)c1ccc(Nc2nc(OC3CCCC3)c3c(-c4ccc5nc(C)oc5c4)c[nH]c3n2)c(OC)c1
1.39 nM: IC50 (second compound 0.316 µM)
active: viability, T/C (second compound 0.0316 µM, first compound 0.003 µM) 1.62% | viability, T/C (second compound 0.0316 µM, first compound 0.00949 µM) 0.49% | viability, T/C (second compound 0.0316 µM, first compound 0.03 µM) 1.29% | viability, T/C (second compound 0.0316 µM, first compound 0.0949 µM) 0.77% | viability, T/C (second compound 0.0316 µM, first compound 0.3 µM) 1.96% | viability, T/C (second compound 0.1 µM, first compound 0.003 µM) 1.2% | viability, T/C (second compound 0.1 µM, first compound 0.00949 µM) 1.56% | viability, T/C (second compound 0.1 µM, first compound 0.03 µM) 0.47% | viability, T/C (second compound 0.1 µM, first compound 0.0949 µM) 0.71% | viability, T/C (second compound 0.1 µM, first compound 0.3 µM) 0.48% | viability, T/C (second compound 0.316 µM, first compound 0.003 µM) 0.82% | viability, T/C (second compound 0.316 µM, first compound 0.00949 µM) 0.43% | viability, T/C (second compound 0.316 µM, first compound 0.03 µM) 0.97% | viability, T/C (second compound 0.316 µM, first compound 0.0949 µM) 0.43% | viability, T/C (second compound 0.316 µM, first compound 0.3 µM) 0.68% | viability, T/C (second compound 1 µM, first compound 0.003 µM) 0.52% | viability, T/C (second compound 1 µM, first compound 0.00949 µM) 0.29% | viability, T/C (second compound 1 µM, first compound 0.03 µM) 0.28% | viability, T/C (second compound 1 µM, first compound 0.0949 µM) 1.45% | viability, T/C (second compound 1 µM, first compound 0.3 µM) 0.23% | viability, T/C (second compound 3.16 µM, first compound 0.003 µM) 0.37% | viability, T/C (second compound 3.16 µM, first compound 0.00949 µM) 0.79% | viability, T/C (second compound 3.16 µM, first compound 0.03 µM) 0.21% | viability, T/C (second compound 3.16 µM, first compound 0.0949 µM) 1.01% | viability, T/C (second compound 3.16 µM, first compound 0.3 µM) 0.26% | viability, T/C (second compound 10 µM, first compound 0.003 µM) 0.42% | viability, T/C (second compound 10 µM, first compound 0.00949 µM) 0.24% | viability, T/C (second compound 10 µM, first compound 0.03 µM) 0.26% | viability, T/C (second compound 10 µM, first compound 0.0949 µM) 1.09% | viability, T/C (second compound 10 µM, first compound 0.3 µM) 0.3%
1.53 nM: IC50 (second compound 0.0316 µM)
inactive: viability, T/C (second compound 0.0316 µM, first compound 0.000949 µM) 84% | viability, T/C (second compound 0.1 µM, first compound 0.000949 µM) 94.3% | viability, T/C (second compound 0.316 µM, first compound 0.000949 µM) 74.2% | viability, T/C (second compound 1 µM, first compound 0.000949 µM) 42.7% | viability, T/C (second compound 3.16 µM, first compound 0.000949 µM) 26.4% | viability, T/C (second compound 10 µM, first compound 0.000949 µM) 17%
< 0.949 nM: IC50 (second compound 1 µM) | IC50 (second compound 3.16 µM) | IC50 (second compound 10 µM)
1.64 nM: IC50 (second compound 0.1 µM)
